Assay results reported in paper PMC7367283, “A PIP2 substitute mediates voltage sensor-pore coupling in KCNQ activation” (Communications Biology, 2020).

Biological target: T1, KV4.2 (Rattus norvegicus, UniProt Q63881)
T1 sequence (Q63881 1-630): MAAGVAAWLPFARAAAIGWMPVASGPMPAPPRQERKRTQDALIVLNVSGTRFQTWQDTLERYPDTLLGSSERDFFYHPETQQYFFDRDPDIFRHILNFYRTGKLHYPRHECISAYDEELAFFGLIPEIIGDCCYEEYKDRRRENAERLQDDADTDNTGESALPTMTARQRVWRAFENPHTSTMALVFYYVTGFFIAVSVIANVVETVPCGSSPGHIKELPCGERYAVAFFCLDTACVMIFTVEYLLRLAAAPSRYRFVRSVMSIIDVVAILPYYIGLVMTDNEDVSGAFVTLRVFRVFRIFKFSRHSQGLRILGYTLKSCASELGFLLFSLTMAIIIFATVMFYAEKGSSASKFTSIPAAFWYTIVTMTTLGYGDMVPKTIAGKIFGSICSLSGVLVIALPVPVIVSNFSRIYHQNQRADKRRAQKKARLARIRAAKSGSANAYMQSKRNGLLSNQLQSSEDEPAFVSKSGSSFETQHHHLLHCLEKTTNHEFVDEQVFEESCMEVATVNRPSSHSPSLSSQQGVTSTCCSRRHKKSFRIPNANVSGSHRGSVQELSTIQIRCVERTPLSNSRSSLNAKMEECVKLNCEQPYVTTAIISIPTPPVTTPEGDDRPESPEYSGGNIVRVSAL
Experiment: Two-electrode voltage clamp of KV4.2 in Xenopus oocytes
Format: cell-based, human
Details: 10 µM CP1
Excerpt: Since CP1 has a similar effect to PIP2 in mediating VSD-pore coupling in KCNQ channels, we tested if CP1 has effects on other ion channels that are also sensitive to PIP2 or are voltage activated and share general structural features of the VSD and the pore with KCNQ. […] On the other hand, NaV1.5 and KV4.2 are voltage-gated ion channels.
Fig. 6 Effects of CP1 on other ion channels expressed in Xenopus oocytes. a Currents of Kir1.1, CaV1.2, NaV1.5, hERG, and KV4.2 before and after application of 10 µM CP1, respectively. The voltages for holding, test, and returning pulses were Kir1.1, 0 mV, −100 to +60 mV, 0; CaV1.2, −100 mV, −100 to +60, −100 mV; NaV1.5, −100, −120 to +40 mV, −120 mV; hERG, −80 mV, −90 to +60 mV, −60 mV; KV4.2, −80 mV, −100 mV to +80 mV, −40 mV; HCN4, −30 mV, −30 to −140 mV, −120 mV. b Current–voltage relations of Kir1.1 channel in the absence or presence of 10 µM CP1 (n = 7). c–g G–V relations of indicated channels with and without 10 µM CP1. The ΔV1/2 of G–V relations (mV) are CaV1.2, 3.38 ± 0.71 mV (c); NaV1.5, −2.26 ± 0.95 mV (d); hERG, 6.85 ± 1.81 mV (e); KV 4.2, −2.26 ± 2.88 mV (f); HCN4, 17.13 ± 1.59 mV (g).
Complementary DNA (cDNA) encoding human KCNQ1 (UniProtKB/Swiss‐Prot under accession no. P51787), KCNQ2 (O43526), KCNQ3 (O43525), KCNE1 (P15382), Kir1.1 (P48048), hERG (Q12809), KV4.2 (Q63881), NaV1.5 (Q14524), NaV β1 (Q07699), CaV1.2 (Q13936), CaV β1a (Q02641), CaV α2/δ1 (P54289), and HCN4 (Q9Y3Q4) were subcloned into oocyte expression vectors, respectively. Site-directed mutations of the KCNQ1 channel were all produced by overlap extension polymerase chain reaction (PCR) with high-fidelity Pfu polymerase (Stratagene, CA). The presence of the desired mutation was verified by sequencing the PCR-amplified regions. All the primer sequences used in this study are available in Supplementary Table 1. The complementary RNA (cRNA) of all these channels and mutations was transcribed in vitro with the T3, T7, or SP6 polymerase mMessage mMachine kit (Invitrogen, Thermo Fisher Scientific, MO).
The whole-oocyte ionic currents were recorded with a GeneClamp 500B amplifier (Axon Instruments, CA) or iTEV90 amplifier (HEKA, Germany) and then sampled at 1 kHz and low-pass-filtered at 2 kHz. The Patchmaster software (HEKA, Germany) was used to acquire data. The Kir1.1 current was recorded with a high K^+ bath solution containing (in mM) 96 KCl, 4 NaCl, 1 CaCl2, 2 MgCl2, and 10 HEPES, pH 7.3–7.4. The HCN4 current was recorded in ND66 solution containing (in mM) 66 NaCl, 32 KCl, 1.8 CaCl2, 1 MgCl2, and 5 HEPES, pH 7.6. All the other potassium channels were recorded in ND96 solution. The currents of CaV1.2 channel were recorded in 40 mM Ba^2+ bath solution containing (in mM) 40 Ba(OH)2, 50 TEA-OH, 2 KOH, and 5 HEPES, adjusted to pH 7.4 with methanesulfonic acid. CP1 (DISODIUM 5-BROMO-2-[9-CHLORO-3-(SULFONATOOXY) NAPHTHO [1,2-B] THIEN-2-YL]-1H-INDOL-3-YL SULFATE, Sigma-Aldrich, MO) and Chromanol 293B (Sigma-Aldrich, MO) were dissolved in bath solutions. All the chemicals were purchased from Sigma-Aldrich. To measure the I–V relations of the Kir1.1 channel, the test voltage was set from −100 to +60 mV for 1 s with 20-mV increments. The test pulses were stepped from a holding potential of 0 mV and then stepped back to 0 mV. The HCN4 currents were recorded by a test pulse between −30 and −140 mV in 10-mV step from a holding potential of −30 mV. For all the other potassium channels and CaV1.2 channel, the holding potential was −80 or −100 mV, and the test pulse was applied with 10-mV increment, which was followed with a repolarization pulse at −40 mV before returning to the holding potential. The durations of test and the repolarization pulse vary for different channels to allow the activation and deactivation of the channel to reach their steady states.

ΔV1/2 of G–V relations: −2.26 ± 2.88 mV | G/Gmax Mean (Fig. 6f) (voltage 0 mV): 0.3489 | G/Gmax Mean (Fig. 6f) (voltage 10 mV): 0.4229 | G/Gmax Mean (Fig. 6f) (voltage 20 mV): 0.5032 | G/Gmax Mean (Fig. 6f) (voltage 30 mV): 0.5901 | G/Gmax Mean (Fig. 6f) (voltage 40 mV): 0.6796 | G/Gmax Mean (Fig. 6f) (voltage 50 mV): 0.7731 | G/Gmax Mean (Fig. 6f) (voltage 60 mV): 0.8507 | G/Gmax Mean (Fig. 6f) (voltage 70 mV): 0.9365 | G/Gmax Mean (Fig. 6f) (voltage 80 mV): 1.0000 | G/Gmax Mean (Fig. 6f) (voltage -10 mV): 0.2734 | G/Gmax Mean (Fig. 6f) (voltage -20 mV): 0.2218 | G/Gmax Mean (Fig. 6f) (voltage -30 mV): 0.1858 | G/Gmax Mean (Fig. 6f) (voltage -40 mV): 0.1969 | G/Gmax Mean (Fig. 6f) (voltage -50 mV): 0.2134
Structure (SMILES): O=S(=O)([O-])Oc1c(-c2sc3c(ccc4cccc(Cl)c43)c2OS(=O)(=O)[O-])[nH]c2ccc(Br)cc12.[Na+].[Na+] [CP1, DISODIUM 5-BROMO-2-[9-CHLORO-3-(SULFONATOOXY) NAPHTHO [1,2-B] THIEN-2-YL]-1H-INDOL-3-YL SULFATE]
